# ChEMBL document CHEMBL2311471, “Synthesis of (E)-8-(3-chlorostyryl)caffeine analogues leading to 9-deazaxanthine derivatives as dual A(2A) antagonists/MAO-B inhibitors” (J Med Chem, 2013)
# Molecular target: T1, Amine oxidase [flavin-containing] A (Homo sapiens, UniProt P21397)
# T1 sequence (P21397 whole entry): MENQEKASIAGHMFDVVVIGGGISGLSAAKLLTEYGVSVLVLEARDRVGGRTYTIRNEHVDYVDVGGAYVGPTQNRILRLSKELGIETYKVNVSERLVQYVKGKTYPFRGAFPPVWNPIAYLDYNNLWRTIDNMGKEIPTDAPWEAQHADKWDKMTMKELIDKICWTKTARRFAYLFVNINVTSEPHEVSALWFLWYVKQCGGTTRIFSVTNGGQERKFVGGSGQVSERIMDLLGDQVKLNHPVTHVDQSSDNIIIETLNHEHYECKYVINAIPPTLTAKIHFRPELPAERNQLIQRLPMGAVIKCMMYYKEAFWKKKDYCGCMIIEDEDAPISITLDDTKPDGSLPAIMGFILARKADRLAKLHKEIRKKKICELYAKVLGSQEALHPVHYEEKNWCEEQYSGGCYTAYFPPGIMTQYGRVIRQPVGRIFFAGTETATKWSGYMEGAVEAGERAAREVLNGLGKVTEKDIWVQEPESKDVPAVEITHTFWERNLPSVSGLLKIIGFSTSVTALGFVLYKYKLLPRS
# Experiment: Inhibition of human MAOA after 1 hr by luminescence assay
row,SMILES,IC50 [µM]
1,COc1ccc(/C=C/c2cc3c(c(=O)n(C)c(=O)n3C)n2C)cc1,> 1
2,Cn1c(=O)c2c(cc(C#Cc3cccc(Cl)c3)n2C)n(C)c1=O,> 10
3,Cn1c(=O)c2c(cc(OCc3ccc4ccccc4c3)n2C)n(C)c1=O,> 10
4,Cn1c(=O)c2c(nc(/C=C/c3ccc(Cl)cc3)n2C)n(C)c1=O,> 10
5,COc1cccc(/C=C/c2cc3c(c(=O)n(C)c(=O)n3C)n2C)c1,1.24
6,Cn1c(=O)c2c(c3ccc(-c4cccc(Cl)c4)cc3n2C)n(C)c1=O,3.11
7,Cn1c(=O)c2c(cc(/C=C/c3ccc(F)cc3)n2C)n(C)c1=O,0.812
8,Cn1c(=O)c2c(cc(-n3cc(-c4ccc(Cl)cc4)nn3)n2C)n(C)c1=O,0.726
9,Cn1c(=O)c2c(cc(C#Cc3ccc(Cl)cc3)n2C)n(C)c1=O,2.02
10,Cn1c(=O)c2c(cc(/C=C/c3ccc(C#N)cc3)n2C)n(C)c1=O,> 10
11,CC(=O)c1ccc(/C=C/c2cc3c(c(=O)n(C)c(=O)n3C)n2C)cc1,> 10
12,CCCOc1ccc(/C=C/c2cc3c(c(=O)n(C)c(=O)n3C)n2C)cc1,1.3
13,Cn1c(=O)c2c(cc(/C=C/c3ccc(C(F)(F)F)cc3)n2C)n(C)c1=O,> 10
14,Cn1c(=O)c2c(cc(OCc3ccc(Cl)cc3)n2C)n(C)c1=O,2.87
15,Cn1c(=O)c2c(cc(/C=C/c3cccc(C(F)(F)F)c3)n2C)n(C)c1=O,5.69
16,Cn1c(=O)c2c(cc(/C=C/c3ccc(Br)cc3)n2C)n(C)c1=O,1.63
17,Cn1c(=O)c2c(cc(OCc3ccc(Cl)c(C(F)(F)F)c3)n2C)n(C)c1=O,> 10
18,Cn1c(=O)c2c(c3cc(OCc4ccccc4)ccc3n2C)n(C)c1=O,> 10

# Molecular target: T2, Amine oxidase [flavin-containing] B (Homo sapiens, UniProt P27338)
# T2 sequence (P27338 whole entry): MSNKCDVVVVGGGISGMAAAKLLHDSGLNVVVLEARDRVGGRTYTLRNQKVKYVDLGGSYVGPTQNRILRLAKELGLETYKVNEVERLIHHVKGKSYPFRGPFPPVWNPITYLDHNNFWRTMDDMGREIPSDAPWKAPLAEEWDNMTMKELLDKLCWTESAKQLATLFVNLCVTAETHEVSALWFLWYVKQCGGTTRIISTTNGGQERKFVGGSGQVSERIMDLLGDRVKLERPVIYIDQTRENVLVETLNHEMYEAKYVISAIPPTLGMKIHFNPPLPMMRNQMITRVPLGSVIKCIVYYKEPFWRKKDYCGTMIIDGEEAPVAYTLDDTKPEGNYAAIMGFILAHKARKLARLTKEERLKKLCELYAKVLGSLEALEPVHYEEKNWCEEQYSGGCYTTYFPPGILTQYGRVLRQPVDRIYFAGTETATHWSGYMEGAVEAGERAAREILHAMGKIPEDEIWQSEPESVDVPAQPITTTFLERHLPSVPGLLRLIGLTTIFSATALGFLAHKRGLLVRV
# Experiment: Inhibition of human MAOB after 1 hr by luminescence assay
row,SMILES,IC50 [µM]
1,COc1ccc(/C=C/c2cc3c(c(=O)n(C)c(=O)n3C)n2C)cc1,0.762
2,Cn1c(=O)c2c(cc(/C=C/c3ccc(Cl)c(Cl)c3)n2C)n(C)c1=O,0.133
3,Cn1c(=O)c2c(cc(/C=C/c3ccc(O)cc3)n2C)n(C)c1=O,> 10
4,Cn1c(=O)c2c(cc(/C=C/c3cccc(O)c3)n2C)n(C)c1=O,> 1
5,Cn1c(=O)c2c(cc(/C=C/c3ccccc3O)n2C)n(C)c1=O,> 1
6,Cn1c(=O)c2c(cc(C#Cc3cccc(Cl)c3)n2C)n(C)c1=O,0.173
7,Cn1c(=O)c2c(cc(OCc3ccc4ccccc4c3)n2C)n(C)c1=O,> 1
8,Cn1c(=O)c2c(nc(/C=C/c3ccc(Cl)cc3)n2C)n(C)c1=O,0.43
9,COc1cccc(/C=C/c2cc3c(c(=O)n(C)c(=O)n3C)n2C)c1,0.37
10,Cn1c(=O)c2c(c3ccc(-c4cccc(Cl)c4)cc3n2C)n(C)c1=O,1.39
11,Cn1c(=O)c2c(cc(/C=C/c3ccc(F)cc3)n2C)n(C)c1=O,0.175
12,Cn1c(=O)c2c(cc(-n3cc(-c4ccc(Cl)cc4)nn3)n2C)n(C)c1=O,0.182
13,Cn1c(=O)c2c(cc(C#Cc3ccc(Cl)cc3)n2C)n(C)c1=O,0.0678
14,Cn1c(=O)c2c(cc(/C=C/c3ccc(C#N)cc3)n2C)n(C)c1=O,0.543
15,CC(=O)c1ccc(/C=C/c2cc3c(c(=O)n(C)c(=O)n3C)n2C)cc1,0.587
16,CCCOc1ccc(/C=C/c2cc3c(c(=O)n(C)c(=O)n3C)n2C)cc1,1.37
17,Cn1c(=O)c2c(cc(/C=C/c3ccc(C(F)(F)F)cc3)n2C)n(C)c1=O,0.432
18,Cn1c(=O)c2c(cc(OCc3ccc(Cl)cc3)n2C)n(C)c1=O,0.0481
19,Cn1c(=O)c2c(cc(/C=C/c3cccc(C(F)(F)F)c3)n2C)n(C)c1=O,0.48
20,Cn1c(=O)c2c(cc(/C=C/c3ccc(Br)cc3)n2C)n(C)c1=O,0.267
21,Cn1c(=O)c2c(cc(OCc3ccc(Cl)c(C(F)(F)F)c3)n2C)n(C)c1=O,0.583
22,Cn1c(=O)c2c(c3cc(OCc4ccccc4)ccc3n2C)n(C)c1=O,5.22

# Molecular target: Adenosine receptor A2a (Homo sapiens, UniProt P29274)
# Experiment: Displacement of [3H]ZM241385 from human adenosine A2A receptor expressed in HEK293 cells after 1 hr by microbeta scintillation counting analysis
# Type: cell-based
# Adenosine receptor A2a, sequence (P29274 whole entry): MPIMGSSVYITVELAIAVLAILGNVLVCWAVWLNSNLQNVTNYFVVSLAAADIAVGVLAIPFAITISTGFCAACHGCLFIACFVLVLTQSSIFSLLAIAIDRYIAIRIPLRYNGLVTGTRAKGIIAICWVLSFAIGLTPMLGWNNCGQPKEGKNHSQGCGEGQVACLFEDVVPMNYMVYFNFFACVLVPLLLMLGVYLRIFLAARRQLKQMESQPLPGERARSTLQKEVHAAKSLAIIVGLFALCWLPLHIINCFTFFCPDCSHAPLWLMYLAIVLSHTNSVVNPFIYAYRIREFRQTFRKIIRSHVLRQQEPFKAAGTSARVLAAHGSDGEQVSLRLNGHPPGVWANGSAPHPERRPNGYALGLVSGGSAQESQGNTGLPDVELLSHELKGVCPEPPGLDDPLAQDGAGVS
row,SMILES,Ki [µM]
1,COc1ccc(/C=C/c2cc3c(c(=O)n(C)c(=O)n3C)n2C)cc1,0.247
2,Cn1c(=O)c2c(cc(/C=C/c3ccc(Cl)c(Cl)c3)n2C)n(C)c1=O,> 10
3,Cn1c(=O)c2c(cc(/C=C/c3ccc(O)cc3)n2C)n(C)c1=O,> 10
4,Cn1c(=O)c2c(cc(/C=C/c3cccc(O)c3)n2C)n(C)c1=O,> 1
5,Cn1c(=O)c2c(cc(/C=C/c3ccccc3O)n2C)n(C)c1=O,1.14
6,Cn1c(=O)c2c(cc(C#Cc3cccc(Cl)c3)n2C)n(C)c1=O,> 10
7,Cn1c(=O)c2c(cc(OCc3ccc4ccccc4c3)n2C)n(C)c1=O,> 10
8,Cn1c(=O)c2c(nc(/C=C/c3ccc(Cl)cc3)n2C)n(C)c1=O,0.141
9,COc1cccc(/C=C/c2cc3c(c(=O)n(C)c(=O)n3C)n2C)c1,0.391
10,Cn1c(=O)c2c(c3ccc(-c4cccc(Cl)c4)cc3n2C)n(C)c1=O,> 1
11,Cn1c(=O)c2c(cc(/C=C/c3ccc(F)cc3)n2C)n(C)c1=O,0.423
12,Cn1c(=O)c2c(cc(-n3cc(-c4ccc(Cl)cc4)nn3)n2C)n(C)c1=O,> 10
13,Cn1c(=O)c2c(cc(C#Cc3ccc(Cl)cc3)n2C)n(C)c1=O,> 10
14,Cn1c(=O)c2c(cc(/C=C/c3ccc(C#N)cc3)n2C)n(C)c1=O,> 1
15,CC(=O)c1ccc(/C=C/c2cc3c(c(=O)n(C)c(=O)n3C)n2C)cc1,0.0939
16,CCCOc1ccc(/C=C/c2cc3c(c(=O)n(C)c(=O)n3C)n2C)cc1,0.307
17,Cn1c(=O)c2c(cc(/C=C/c3ccc(C(F)(F)F)cc3)n2C)n(C)c1=O,0.531
18,Cn1c(=O)c2c(cc(OCc3ccc(Cl)cc3)n2C)n(C)c1=O,> 10
19,Cn1c(=O)c2c(cc(/C=C/c3cccc(C(F)(F)F)c3)n2C)n(C)c1=O,> 10
20,Cn1c(=O)c2c(cc(/C=C/c3ccc(Br)cc3)n2C)n(C)c1=O,> 10
21,Cn1c(=O)c2c(cc(OCc3ccc(Cl)c(C(F)(F)F)c3)n2C)n(C)c1=O,> 10
22,Cn1c(=O)c2c(c3cc(OCc4ccccc4)ccc3n2C)n(C)c1=O,> 1
